The text below walks through data of patent US12583870B2, “Azaheteroaryl compound and application thereof” (SHANGHAI BLUERAY BIOPHARMA CO., LTD., priority 2019, dated 2026).

Assay [1] relates to KARPAS-422 cells. As to the kind of experiment: Cell proliferation analysis, KARPAS-422, 13 days, CellTiter-Glo. Particulars: Homo sapiens, 312 h. The assay is classed as cell-based. An outline of the steps: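 KARPAS-422 cells were treated with PRC2 inhibitors over 9 three-fold dilutions from 10 μM top (0.5% DMSO, duplicates) in RPMI-1640 with 15% FBS at 37 °C. Every 3–4 days cells were counted and reseeded at 1×10^4/well with fresh compound. Viability was read by CellTiter-Glo luminescence on day 13.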
Background: ATP-based viability assays read luminescence as a measure of living cells.

The target of assay [2] is T1, EED protein (His6-tagged full-length) binding to H3K27me3 polypeptide (Homo sapiens, UniProt O75530).
T1 construct: His6-tagged full-length EED protein (441 amino acids)
T1 sequence (O75530 whole entry): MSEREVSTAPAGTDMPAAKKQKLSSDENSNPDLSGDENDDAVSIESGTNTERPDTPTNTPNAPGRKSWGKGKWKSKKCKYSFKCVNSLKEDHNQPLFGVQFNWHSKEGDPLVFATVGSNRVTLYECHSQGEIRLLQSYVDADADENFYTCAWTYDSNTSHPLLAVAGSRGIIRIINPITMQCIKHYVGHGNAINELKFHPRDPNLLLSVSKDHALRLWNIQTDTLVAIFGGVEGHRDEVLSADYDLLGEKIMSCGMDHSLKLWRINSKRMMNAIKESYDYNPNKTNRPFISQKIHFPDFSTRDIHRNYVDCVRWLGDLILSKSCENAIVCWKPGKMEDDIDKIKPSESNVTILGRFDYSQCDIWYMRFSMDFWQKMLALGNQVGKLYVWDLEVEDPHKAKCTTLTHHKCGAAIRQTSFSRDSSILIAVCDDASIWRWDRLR
As to the kind of experiment: AlphaScreen evaluation of blocking the binding of EED to H3K27Me3. Particulars: EED 60 nM, biotinylated H3K27me3 75 nM, 30 minutes incubation. The protocol:
Firstly, compound solutions of different concentration gradients were prepared. Compound powder was dissolved in DMSO to prepare a mother liquor. 1.5 μl of the mother liquor of the compound was taken and added into 198.5 μl of a reaction buffer (25 mM HEPES (pH 8.0), 50 mM NaCl, 0.015% Tween 20, 0.5% BSA). The mixture was mixed uniformly. Then a 3-fold series dilution was carried out with the above-mentioned buffer containing 0.75% DMSO. 9 different test concentrations were provided for one same compound. 5 μL of compounds of different concentration gradients were taken and added into the ProxiPlate-384 Plus, White detection plate (PerkinElmer, 6008280) and two replicates in parallel were provided for each concentration gradient.
Secondly, a reaction for blocking the binding was carried out. The above-mentioned buffer was used to dilute His6-tagged full-length EED protein (441 amino acids) to 60 nM and biotinylated polypeptide fragment H3K27me3 (amino acids at positions 19-33) (Biotinylated-H3K27me3) to 75 nM. 5 μl of the polypeptide fragment at the concentration of 75 nM and 5 µl of the protein at the concentration of 60 nM were transferred to the detection wells containing the compound, respectively. The detection plate was sealed with the film and incubation was carried out at room temperature for 30 minutes.
Finally, the detection was carried out with the AlphaScreen method. Prior use, nickel chelate receptor beads and streptavidin donor beads (at the ratio of 1:1, Perkin Elmer, product number 6760619M) were mixed with the above-mentioned reaction buffer. Then 5 μl of the above-mentioned pre-mixed detection solution was added to each of the detection wells. The donor beads and receptor beads were both at a final concentration of 5 μg/mL. The detection plate was covered and sealed with tinfoil and placed in the dark at room temperature for 1 hour. The signal was read using the AlphaScreen detector on the Spectra max i3. AlphaScreen signals were standardlized based on the readings obtained from positive controls (maximum signal controls) and negative controls (minimum signal controls) to give the inhibition rates for compounds at different concentrations, and afterwards non-linear regression analysis was carried out using GraphPad Prism 5, inhibition curves were made based on the Dose-Response equation of Y=Bottom+(Top−Bottom)/(1+10^((Log IC50−X)*HillSlope)) and the IC50 values of each compound were obtained. […]
A general note: Bead proximity is the source of the signal in Alpha formats.

Assay [3] has as its system trimethylation level of histone H3K27 in G401 cells. Description: ELISA (H3K27 trimethylation) analysis in G401 cells. The assay is classed as cell-based. Particulars: Homo sapiens, G-401, 72 hours, H3K27me3 standardized to H3. An outline of the steps:
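Cells exposed 72 h to 10-point 3-fold dilutions, top 10 μM, 0.5% final DMSO. Acid-extracted histones assayed by ELISA (ECL) for H3K27me3, normalized to total H3 and to DMSO control; IC50 from dose-response fit.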

Regarding `O=S1(=O)C=C(F)c2cc(-c3cnc(NCc4c(F)ccc5c4[C@H]4C[C@H]4O5)n4cnnc34)ccc21` [3-fluoro-5-(5-((((1aR,6bR)-5-fluoro-1a,6b-dihydro-1H-cyclopropa[b]benzofuran-6-yl)methyl)amino)-[1,2,4]triazolo[4,3-c]pyrimidin-8-yl)benzo[b]thiophene 1,1-dioxide], the half-maximal inhibitory concentration (IC50) (commonly the concentration that gives 50% inhibition) in assay [1] stood at 0.097 µM; in assay [2], 0.123 µM; in assay [3], 0.078 µM.
Taken in the same sequence, the figures for `CC1=Cc2c(-c3cnc(NCc4c(F)ccc5c4CCO5)n4cnnc34)cccc2S1(=O)=O` [4-(5-(((5-fluoro-2,3-dihydrobenzofuran-4-yl)methyl)amino)-[1,2,4]triazolo[4,3-c]pyrimidin-8-yl)-2-methylbenzo[b]thiophene 1,1-dioxide] were 0.0042 µM, 0.0122 µM and 0.0036 µM.
In the same order, the values of `O=S1(=O)C=Cc2c(-c3cnc(NCc4c(F)ccc5c4CCO5)n4cnnc34)cccc21` [4-(5-(((5-fluoro-2,3-dihydrobenzofuran-4-yl)methyl)amino)-[1,2,4]triazolo[4,3-c]pyrimidin-8-yl)benzo[b]thiophene 1,1-dioxide] are 0.013 µM, 0.01 µM and 0.021 µM.
On to `O=S1(=O)C=Cc2c(-c3cnc(NCc4c(F)ccc5c4[C@H]4C[C@H]4O5)n4cnnc34)cccc21` [4-(5-((((1aR,6bR)-5-fluoro-1a,6b-dihydro-1H-cyclopropa[b]benzofuran-6-yl)methyl)amino)-[1,2,4]triazolo[4,3-c]pyrimidin-8-yl)benzo[b]thiophene 1,1-dioxide], for which the IC50 in assay [1] was determined as 0.0115 µM; in assay [2] it was 0.0044 µM; in assay [3], 0.0092 µM.
`Cc1cc2c(cc1-c1cnc(NCc3c(F)ccc4c3CCO4)n3cnnc13)C=CS2(=O)=O` [5-(5-(((5-fluoro-2,3-dihydrobenzofuran-4-yl)methyl)amino)-[1,2,4]triazolo[4,3-c]pyrimidin-8-yl)-6-methylbenzo[b]thiophene 1,1-dioxide]: the figures for the concentration for half-maximal inhibition (IC50) in assay [1], in assay [2] and in assay [3] were 0.0005 µM, 0.0041 µM and 0.0009 µM, respectively.
Taken in the same sequence, the figures for `O=S1(=O)C=Cc2cc(-c3cnc(NCc4c(F)ccc5c4CCO5)n4cnnc34)ccc21` [5-(5-(((5-fluoro-2,3-dihydrobenzofuran-4-yl)methyl)amino)-[1,2,4]triazolo[4,3-c]pyrimidin-8-yl)benzo[b]thiophene 1,1-dioxide] were 0.0007 µM, 0.0049 µM and 0.0021 µM.
For `O=S1(=O)C=c2ccc(-c3cnc(NCc4c(F)ccc5c4CCO5)n4cnnc34)cc2=C1` [5-(5-(((5-fluoro-2,3-dihydrobenzofuran-4-yl)methyl)amino)-[1,2,4]triazolo[4,3-c]pyrimidin-8-yl)benzo[c]thiophene 2,2-dioxide], the IC50 in assay [1] was 0.0004 µM; in assay [2], 0.0049 µM; in assay [3] it was 0.0003 µM.
Taken in the same sequence, the figures for `O=S1(=O)C=c2ccc(-c3cnc(NCc4c(F)ccc5c4CCCO5)n4cnnc34)cc2=C1` [5-(5-(((6-fluorochroman-5-yl)methyl)amino)-[1,2,4]triazolo[4,3-c]pyrimidin-8-yl)benzo[c]thiophene 2,2-dioxide] were 0.0016 µM, 0.0064 µM and 0.002 µM.
Consider `CC1=Cc2cc(-c3cnc(NCc4c(F)ccc5c4[C@H]4C[C@H]4O5)n4cnnc34)ccc2S1(=O)=O` [5-(5-((((1aR,6bR)-5-fluoro-1a,6b-dihydro-1H-cyclopropa[b]benzofuran-6-yl)methyl)amino)-[1,2,4]triazolo[4,3-c]pyrimidin-8-yl)-2-methylbenzo[b]thiophene 1,1-dioxide], for which the figures for the IC50 in assay [1], in assay [2] and in assay [3] were 0.0125 µM, 0.0049 µM and 0.0041 µM, respectively.
`CC1=CS(=O)(=O)c2ccc(-c3cnc(NCc4c(F)ccc5c4[C@H]4C[C@H]4O5)n4cnnc34)cc21` [5-(5-((((1aR,6bR)-5-fluoro-1a,6b-dihydro-1H-cyclopropa[b]benzofuran-6-yl)methyl)amino)-[1,2,4]triazolo[4,3-c]pyrimidin-8-yl)-3-methylbenzo[b]thiophene 1,1-dioxide]: the IC50 was found to be 0.0243 µM in assay [1], 0.0049 µM in assay [2] and 0.0136 µM in assay [3].
Consider `O=S1(=O)C=Cc2cc(-c3cnc(NCc4c(F)ccc5c4[C@H]4C[C@H]4O5)n4cnnc34)ccc21` [5-(5-((((1aR,6bR)-5-fluoro-1a,6b-dihydro-1H-cyclopropa[b]benzofuran-6-yl)methyl)amino)-[1,2,4]triazolo[4,3-c]pyrimidin-8-yl)benzo[b]thiophene 1,1-dioxide], for which the IC50 in assay [1] was found to be 0.0007 µM; in assay [2], 0.0038 µM; in assay [3], 0.0008 µM.
In the same order, the values of `O=S1(=O)C=c2ccc(-c3cnc(NCc4c(F)ccc5c4[C@H]4C[C@H]4O5)n4cnnc34)cc2=C1` [5-(5-((((1aR,6bR)-5-fluoro-1a,6b-dihydro-1H-cyclopropa[b]benzofuran-6-yl)methyl)amino)-[1,2,4]triazolo[4,3-c]pyrimidin-8-yl)benzo[c]thiophene 2,2-dioxide] are 0.0008 µM, 0.0063 µM and 0.0006 µM.
`O=S1(=O)C=Cc2cc(-c3cnc(NCc4c(F)ccc5c4[C@@H]4C[C@@H]4O5)n4cnnc34)ccc21` [5-(5-((((1aS,6bS)-5-fluoro-1a,6b-dihydro-1H-cyclopropa[b]benzofuran-6-yl)methyl)amino)-[1,2,4]triazolo[4,3-c]pyrimidin-8-yl)benzo[b]thiophene 1,1-dioxide]: the results for the IC50 in assay [1], in assay [2] and in assay [3] were 0.0038 µM, 0.015 µM and 0.016 µM, respectively.
Taken in the same sequence, the figures for `CC1=Cc2ccc(-c3cnc(NCc4c(F)ccc5c4CCO5)n4cnnc34)cc2S1(=O)=O` [6-(5-(((5-fluoro-2,3-dihydrobenzofuran-4-yl)methyl)amino)-[1,2,4]triazolo[4,3-c]pyrimidin-8-yl)-2-methylbenzo[b]thiophene 1,1-dioxide] were 0.0088 µM, 0.0027 µM and 0.0079 µM.
As for `CC1=C(C)S(=O)(=O)c2c(F)cc(-c3cnc(NCc4c(F)ccc5c4CCO5)n4cnnc34)cc21` [7-fluoro-5-(5-(((5-fluoro-2,3-dihydrobenzofuran-4-yl)methyl)amino)-[1,2,4]triazolo[4,3-c]pyrimidin-8-yl)-2,3-dimethylbenzo[b]thiophene 1,1-dioxide], the figures for the concentration for half-maximal inhibition (IC50) in assay [1], in assay [2] and in assay [3] were 0.0087 µM, 0.002 µM and 0.014 µM, respectively.
In the same order, the values of `O=S1(=O)C=Cc2cc(-c3cnc(NCc4c(F)ccc5c4CCO5)n4cnnc34)cc(F)c21` [7-fluoro-5-(5-(((5-fluoro-2,3-dihydrobenzofuran-4-yl)methyl)amino)-[1,2,4]triazolo[4,3-c]pyrimidin-8-yl)benzo[b]thiophene 1,1-dioxide] are 0.0005 µM, 0.0045 µM and 0.0028 µM.
Regarding `Cc1ccc(-c2cnc(NCc3c(F)ccc4c3CCO4)n3cnnc23)c2ncc(C)n12` [8-(3,5-dimethylimidazo[1,2-a]pyridin-8-yl)-N-((5-fluoro-2,3-dihydrobenzofuran-4-yl)methyl)-[1,2,4]triazolo[4,3-c]pyrimidin-5-amine], the 50% inhibitory concentration (IC50) in assay [1] turned out to be 0.0019 µM; in assay [2], 0.0051 µM; in assay [3] it was 0.0027 µM.
On to `Fc1cc(-c2cnc(NCc3c(F)ccc4c3CCO4)n3cnnc23)c2ncc(F)n2c1` [8-(3,6-difluoroimidazo[1,2-a]pyridin-8-yl)-N-((5-fluoro-2,3-dihydrobenzofuran-4-yl)methyl)-[1,2,4]triazolo[4,3-c]pyrimidin-5-amine], for which the IC50 in assay [1] stood at 0.0075 µM; in assay [2], 0.0052 µM; in assay [3], 0.0077 µM.
Taken in the same sequence, the figures for `CCc1cnc2c(-c3cnc(NCc4c(F)ccc5c4CCO5)n4cnnc34)ccc(C)n12` [8-(3-ethyl-5-methylimidazo[1,2-a]pyridin-8-yl)-N-((5-fluoro-2,3-dihydrobenzofuran-4-yl)methyl)-[1,2,4]triazolo[4,3-c]pyrimidin-5-amine] were 0.0022 µM, 0.003 µM and 0.0025 µM.
